14 sequences from patent US20070117770A1, “Human ribosomal DNA (rDNA) and ribosomal RNA (rRNA) nucleic acids and uses thereof” (Cylene Pharmaceuticals, Inc., priority 2005, published 2007) can be followed below.

The data set concerns the target T1, nucleolin (Homo sapiens, UniProt P19338).
T1 construct: without the N-terminal acidic stretches domain
Put plainly: Filter-binding assay of 32P-labeled quadruplexes and Nucleolin. The note with it: for Kd: 0.2 nM 32P-labeled quadruplex, read-out: Kd, apparent dissociation constant of nucleolin protein and the nucleic acid ligand. How it is done:
The assay also was conducted in a filter-binding format. […] The protein-quadruplex mixtures were incubated for 30 min at ambient temperature and filtered through mixed cellulose ester membrane filters (Millipore) with gentle suction. The filters were washed twice with […] of binding buffer, dried and OptiPhase ‘SuperMix’ scintillation cocktail (Perkin Elmer) was added to the wells. Radioactivity was assayed with MicroBeta scintillation counter (Perkin Elmer). Binding curves were constructed and apparent Kd's and Bmax's for the complexes were calculated using the GraphPad Prizm software program (GraphPad Software). In the following table, the nucleic acid ligand is designated in the first column using the nomenclature described herein; the second column provides the nucleotide sequence of the nucleic acid ligand; the third column is the conformation of the ligand as determined by circular dichroism (M is mixed, P is parallel, A is antiparallel, C is complex, SS is single-stranded and ND is not determined); the fourth column is the dissociation constant determined by the filter binding assay of nucleolin protein and the nucleic acid ligand; the fifth column is a Bmax constant determined by the filter binding assay, which is the percent of active nucleic acid ligand in each assay; and the sixth column presents the concentration of Compound A-1 required to dissociate half of the complexed nucleic acid ligand and nucleolin protein, as determined by the EMSA assay described above.

T1 sequence (P19338 284-710 limits assumed): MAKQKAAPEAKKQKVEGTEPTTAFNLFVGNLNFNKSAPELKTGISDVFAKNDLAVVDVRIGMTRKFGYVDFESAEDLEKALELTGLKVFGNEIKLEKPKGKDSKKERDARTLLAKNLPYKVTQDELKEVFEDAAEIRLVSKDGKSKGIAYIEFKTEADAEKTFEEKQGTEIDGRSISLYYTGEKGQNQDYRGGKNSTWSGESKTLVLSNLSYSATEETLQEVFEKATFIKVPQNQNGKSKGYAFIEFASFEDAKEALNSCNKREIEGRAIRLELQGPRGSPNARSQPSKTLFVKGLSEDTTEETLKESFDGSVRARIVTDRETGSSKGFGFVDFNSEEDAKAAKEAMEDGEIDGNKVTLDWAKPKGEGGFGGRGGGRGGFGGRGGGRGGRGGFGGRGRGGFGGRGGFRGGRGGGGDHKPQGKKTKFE

In the case of “AGGGACCGGTGGGGCCGGGGCGGGG (DNA, backbone and methylation of C not given here; listed as Homo sapiens) [Compound 3468T]”, the “Bmax, percent of active nucleic acid ligand” value (shortened to “Bmax, percent”) was determined as 21% and the Kd came out at 2.4 nM.

Take “AGGGACGCCTGGGGAAGGGAGGGGG (DNA, backbone and methylation of C not given here; listed as Homo sapiens) [Compound 1310T]”: the “Bmax, percent” value is given as 50% and the Kd is 4.4 nM.

On to “AGGGACGGGGACCGGCGGGCCACGGGG (DNA, backbone and methylation of C not given here; listed as Homo sapiens) [Compound 13236T]”, for which the Kd is over 30 nM.

With “AGGGAGGACGCGGGGCCGGGGGGCGGAGACGGG (DNA, backbone and methylation of C not given here; listed as Homo sapiens) [Compound 8716T]”, the “Bmax, percent” value is 49% and the Kd was 3.1 nM.

With “AGGGAGGGAGACGGGGGGG (DNA, backbone and methylation of C not given here; listed as Homo sapiens) [Compound 5701NT]”, the “Bmax, percent” value turned out to be 84% and the Kd is 3.2 nM.

As for “AGGGCGCGGGGTGGGGAGGG (DNA, backbone and methylation of C not given here; listed as Homo sapiens) [Compound 10951T]”, the “Bmax, percent” value turned out to be 52% and the Kd stood at 0.2 nM.

In the case of “AGGGCGGACGGGAGGGAGCGAGCGGGCGCGGGGG (DNA, backbone and methylation of C not given here; listed as Homo sapiens) [Compound 3500T]”, the “Bmax, percent” value was found to be 20% and the Kd is 1.1 nM.

In the case of “AGGGCGGGCGGCGGGGCGGG (DNA, backbone and methylation of C not given here; listed as Homo sapiens) [Compound 7499T]”, the “Bmax, percent” value amounted to 16% and the Kd was determined as 1.1 nM.

On to “AGGGGACACCGGGGGGGCGCCGGGGG (DNA, backbone and methylation of C not given here; listed as Homo sapiens) [Compound 11888T]”, for which the “Bmax, percent” value turned out to be 47% and the Kd was 0.2 nM.

Take “AGGGGAGGGGGGAGGACGGGGAGCGGGGG (DNA, backbone and methylation of C not given here; listed as Homo sapiens) [Compound 10985T]”: the “Bmax, percent” value amounted to 35% and the Kd was 0.2 nM.

With “AGGGGCGGCGGGGAGGAGGAGGGGCGCGGGG (DNA, backbone and methylation of C not given here; listed as Homo sapiens) [Compound 7370T]”, the “Bmax, percent” value is reported as 16% and the Kd worked out at 1.1 nM.

Regarding “AGGGGCGGCGGGGGAAGGGAGGGCGGGTGGAGGGGTCGGGAGGAACGGGGGGCGGG (DNA, backbone and methylation of C not given here; listed as Homo sapiens) [Compound 8440T]”, the “Bmax, percent” value was 35% and the Kd was found to be 0.3 nM.

“AGGGGCGGGGGCGCGGGGAGGAGGGGTGGG (DNA, backbone and methylation of C not given here; listed as Homo sapiens) [Compound 9024T]”: the “Bmax, percent” value turned out to be 43% and the Kd was determined as 0.3 nM.

“AGGGGCTCCGGGGGCGGGGAGCGGGGCGTGGGCGGGAGGAGGGG (DNA, backbone and methylation of C not given here; listed as Homo sapiens) [Compound 10137T]”: the “Bmax, percent” value is listed as 65% and the Kd is 0.4 nM.
